Experimental data taken from ChEMBL document CHEMBL1201862, “PubChem BioAssay data set” (2004).
Calls of active or inactive are those of the source.

Experiments:
[1] = Luminescence Cell-Based Dose Retest to Confirm Inhibitors of Cancer Stem Cells. [Related pubchem assays (depositor defined):AID2717, AID2721]; type: functional; conditions: Homo sapiens
[2] = cytotoxicity in HMLE control line with eGFP shRNA, dose response, counter-screen for HMLE_sh_ECad selective toxicity project, cell-based, HMLE_sh_eGFP, luminescence (AID 463074); type: functional, Homo sapiens;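 further: HMLE human mammary epithelial cells expressing control shRNA against eGFP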
Large T antigen = Large T antigen (Simian virus 40, UniProt P03070); type: functional, Betapolyomavirus macacae;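 further: Confirmatory-stage PubChem screen for compounds that inhibit SV40 T antigen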
Chain of Large T antigen (P03070 whole entry): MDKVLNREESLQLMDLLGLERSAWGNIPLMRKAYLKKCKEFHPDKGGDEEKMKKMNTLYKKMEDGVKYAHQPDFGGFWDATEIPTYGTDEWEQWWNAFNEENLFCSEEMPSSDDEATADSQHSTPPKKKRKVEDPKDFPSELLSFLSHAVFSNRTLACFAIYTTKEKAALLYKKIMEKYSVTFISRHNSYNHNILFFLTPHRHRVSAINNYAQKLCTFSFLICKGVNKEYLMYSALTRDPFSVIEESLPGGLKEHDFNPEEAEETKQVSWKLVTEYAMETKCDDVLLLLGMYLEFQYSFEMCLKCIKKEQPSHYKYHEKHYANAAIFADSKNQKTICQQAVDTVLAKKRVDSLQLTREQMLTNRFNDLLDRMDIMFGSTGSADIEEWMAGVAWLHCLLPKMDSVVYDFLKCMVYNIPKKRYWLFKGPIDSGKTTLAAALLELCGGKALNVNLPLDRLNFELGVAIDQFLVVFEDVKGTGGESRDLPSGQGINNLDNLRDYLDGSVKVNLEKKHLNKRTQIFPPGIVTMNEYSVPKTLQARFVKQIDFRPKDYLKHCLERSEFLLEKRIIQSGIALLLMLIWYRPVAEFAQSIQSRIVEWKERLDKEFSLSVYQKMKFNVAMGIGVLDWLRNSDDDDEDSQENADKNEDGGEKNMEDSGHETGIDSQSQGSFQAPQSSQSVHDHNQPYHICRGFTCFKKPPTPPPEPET

[3] = target: T1, Lysine-specific demethylase 4C (Homo sapiens, UniProt Q9H3R0); test: GASC-1 (JMJD2C) histone demethylase inhibitors, dose response, biochemical, DELFIA europium, cherry-picked samples (AID 488835); type: functional
T1 sequence (Q9H3R0 whole entry): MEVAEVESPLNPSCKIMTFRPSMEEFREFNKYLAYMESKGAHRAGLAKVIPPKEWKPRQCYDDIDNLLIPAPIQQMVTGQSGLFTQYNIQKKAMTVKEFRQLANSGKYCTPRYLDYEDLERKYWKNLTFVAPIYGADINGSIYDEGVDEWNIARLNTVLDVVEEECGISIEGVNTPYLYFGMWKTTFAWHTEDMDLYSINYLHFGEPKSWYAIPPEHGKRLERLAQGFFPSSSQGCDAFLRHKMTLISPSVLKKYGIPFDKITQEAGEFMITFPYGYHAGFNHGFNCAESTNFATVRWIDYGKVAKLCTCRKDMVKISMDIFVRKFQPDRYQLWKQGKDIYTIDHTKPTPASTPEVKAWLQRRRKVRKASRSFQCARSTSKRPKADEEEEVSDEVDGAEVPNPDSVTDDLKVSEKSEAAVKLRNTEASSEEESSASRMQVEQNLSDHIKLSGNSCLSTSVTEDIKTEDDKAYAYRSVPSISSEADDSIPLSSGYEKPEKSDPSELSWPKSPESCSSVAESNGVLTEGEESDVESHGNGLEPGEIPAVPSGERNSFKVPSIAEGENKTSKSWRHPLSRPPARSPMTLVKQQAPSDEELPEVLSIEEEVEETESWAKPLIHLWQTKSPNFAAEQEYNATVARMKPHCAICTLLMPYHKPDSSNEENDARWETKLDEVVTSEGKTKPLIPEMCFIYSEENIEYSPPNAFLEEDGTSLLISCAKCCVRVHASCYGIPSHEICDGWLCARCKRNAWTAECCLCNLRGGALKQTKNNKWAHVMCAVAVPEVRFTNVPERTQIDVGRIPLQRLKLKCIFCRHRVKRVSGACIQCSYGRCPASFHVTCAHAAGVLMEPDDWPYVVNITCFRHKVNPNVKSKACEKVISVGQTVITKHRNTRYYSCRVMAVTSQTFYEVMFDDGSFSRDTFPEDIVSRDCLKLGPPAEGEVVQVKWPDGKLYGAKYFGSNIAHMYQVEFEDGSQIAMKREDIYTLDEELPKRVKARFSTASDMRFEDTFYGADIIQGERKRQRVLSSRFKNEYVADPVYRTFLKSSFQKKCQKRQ

[4] = target: Lysine-specific demethylase 4A (Homo sapiens, UniProt O75164); test: JMJD2A histone demethylase inhibitors, dose response, selectivity assay for GASC-1 inhibitor project, biochemical, DELFIA europium, cherry-picked samples (AID 488840)
Chain of Lysine-specific demethylase 4A (O75164 whole entry): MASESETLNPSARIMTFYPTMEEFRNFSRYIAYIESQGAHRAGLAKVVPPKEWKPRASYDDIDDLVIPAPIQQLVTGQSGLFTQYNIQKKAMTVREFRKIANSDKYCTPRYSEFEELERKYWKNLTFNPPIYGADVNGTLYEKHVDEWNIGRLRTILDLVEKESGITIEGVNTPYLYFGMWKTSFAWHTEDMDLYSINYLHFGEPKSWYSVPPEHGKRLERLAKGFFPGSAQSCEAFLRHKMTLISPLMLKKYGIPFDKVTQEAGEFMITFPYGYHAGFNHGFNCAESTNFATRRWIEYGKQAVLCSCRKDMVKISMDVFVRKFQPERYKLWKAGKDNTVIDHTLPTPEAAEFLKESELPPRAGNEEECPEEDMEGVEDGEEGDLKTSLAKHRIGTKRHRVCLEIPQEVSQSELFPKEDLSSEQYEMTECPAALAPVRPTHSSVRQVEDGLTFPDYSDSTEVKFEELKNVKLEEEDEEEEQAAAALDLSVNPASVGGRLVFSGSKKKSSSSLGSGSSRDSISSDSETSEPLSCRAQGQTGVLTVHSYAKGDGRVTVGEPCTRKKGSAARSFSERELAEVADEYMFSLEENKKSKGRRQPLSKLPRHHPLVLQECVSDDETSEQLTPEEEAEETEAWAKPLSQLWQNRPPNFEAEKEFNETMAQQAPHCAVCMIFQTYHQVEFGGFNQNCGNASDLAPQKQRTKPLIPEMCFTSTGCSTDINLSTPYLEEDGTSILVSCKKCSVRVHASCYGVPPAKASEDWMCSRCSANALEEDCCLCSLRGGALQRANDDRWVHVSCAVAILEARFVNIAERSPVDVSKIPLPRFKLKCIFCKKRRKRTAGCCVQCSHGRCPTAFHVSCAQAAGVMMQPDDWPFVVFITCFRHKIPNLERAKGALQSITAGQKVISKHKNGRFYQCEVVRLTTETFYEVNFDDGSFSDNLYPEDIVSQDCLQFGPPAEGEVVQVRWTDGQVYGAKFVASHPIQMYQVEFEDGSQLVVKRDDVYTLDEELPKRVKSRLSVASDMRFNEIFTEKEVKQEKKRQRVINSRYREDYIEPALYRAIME

Albumin = Albumin (Bos taurus, UniProt P02769); test: Counterscreen for inhibitors of T-cell receptor (TCR)-CD3 interaction: Fluorescence-based biochemical high throughput dose response assay to identify inhibitors of T-cell receptor (TCR)-CD3 interaction using a TAMRA-labeled BSA probe.; type: functional
Chain of Albumin (P02769 whole entry, the tested form may be a part): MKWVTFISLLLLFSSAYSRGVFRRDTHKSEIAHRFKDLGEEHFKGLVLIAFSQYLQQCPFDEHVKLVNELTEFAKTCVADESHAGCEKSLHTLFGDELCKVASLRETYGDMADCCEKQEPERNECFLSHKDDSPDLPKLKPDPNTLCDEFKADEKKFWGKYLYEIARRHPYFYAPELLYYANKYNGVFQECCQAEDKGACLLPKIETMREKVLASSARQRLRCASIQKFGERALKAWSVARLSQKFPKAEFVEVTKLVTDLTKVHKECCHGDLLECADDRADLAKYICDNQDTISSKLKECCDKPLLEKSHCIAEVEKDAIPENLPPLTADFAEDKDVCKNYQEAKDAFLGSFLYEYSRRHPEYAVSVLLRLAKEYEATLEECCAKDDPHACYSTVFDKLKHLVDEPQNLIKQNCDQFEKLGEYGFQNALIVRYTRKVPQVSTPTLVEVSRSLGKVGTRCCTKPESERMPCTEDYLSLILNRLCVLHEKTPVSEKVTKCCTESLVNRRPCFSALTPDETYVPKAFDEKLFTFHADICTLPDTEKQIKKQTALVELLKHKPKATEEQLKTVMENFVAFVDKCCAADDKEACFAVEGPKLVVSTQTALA

[5] = target: T2, Carboxy-terminal domain RNA polymerase II polypeptide A small phosphatase 1 (Homo sapiens, UniProt Q9GZU7); test: inhibitors of CTDSP1, concentration-response testing, biochemical assay, absorbance-based, actives from ultra-high-throughput screening (AID 540297); type: functional
T2 sequence (Q9GZU7 whole entry): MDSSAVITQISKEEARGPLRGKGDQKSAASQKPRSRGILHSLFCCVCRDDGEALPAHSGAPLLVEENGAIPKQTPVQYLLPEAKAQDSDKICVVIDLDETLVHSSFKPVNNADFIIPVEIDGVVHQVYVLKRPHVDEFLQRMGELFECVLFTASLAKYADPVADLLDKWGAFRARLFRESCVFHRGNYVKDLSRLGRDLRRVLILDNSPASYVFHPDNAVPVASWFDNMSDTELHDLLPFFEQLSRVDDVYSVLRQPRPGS

[6] = ZM109 Env clade C HIV-1 fusion inhibitors, dose response, HeLa effector, CEM target cells, luciferase, cherry-pick (AID 652058); type: functional, cell-based
[7] = inhibitors of clade B AD8 Env fusion, dose response, cell-based, cherry-pick (AID 652062); type: functional;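 further: luciferase signal from cell-cell fusion driven by HIV-1 clade B AD8 Env; potency is for inhibitors of fusion seen as a drop in luminescence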
[8] = off-target signal loss in HeLa-CEM21 co-culture – HeLa F-luc CTL cells, cherry-picked, counter-screen for HIV-1 Env fusion inhibitor project, dose response (AID 652040); type: functional, cell-based;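 further: potency for signal decrease marking cytotoxic or nonspecific inhibition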
HEK293 [9] = test: cells; conditions: Homo sapiens
HEK293 [10] = test: cells; conditions: Homo sapiens; remark: listed apart in the source
[11] = inhibitors of HIV Env-driven cell fusion, dose response, cherry-pick (AID 652057); type: functional, cell-based
[12] = Fluorescence-based cell-based high throughput dose response assay for inhibitors of the interaction of nucleotide-binding oligomerization domain containing 2 (NOD2) and the receptor-interacting serine-threonine kinase 2 (RIPK2).; type: functional; conditions: Homo sapiens
[13] = target: T3, Tyrosine-protein phosphatase non-receptor type 7 (Homo sapiens, UniProt P35236); test: HTS HePTP Fluorescent Assay using OMFP substrate for In Vitro dose response studies. [Related pubchem assays (depositor defined):AID1059, AID1077, AID1784, AID2068, AID2085, AID435032, AID521]; type: functional
T3 sequence (P35236 whole entry): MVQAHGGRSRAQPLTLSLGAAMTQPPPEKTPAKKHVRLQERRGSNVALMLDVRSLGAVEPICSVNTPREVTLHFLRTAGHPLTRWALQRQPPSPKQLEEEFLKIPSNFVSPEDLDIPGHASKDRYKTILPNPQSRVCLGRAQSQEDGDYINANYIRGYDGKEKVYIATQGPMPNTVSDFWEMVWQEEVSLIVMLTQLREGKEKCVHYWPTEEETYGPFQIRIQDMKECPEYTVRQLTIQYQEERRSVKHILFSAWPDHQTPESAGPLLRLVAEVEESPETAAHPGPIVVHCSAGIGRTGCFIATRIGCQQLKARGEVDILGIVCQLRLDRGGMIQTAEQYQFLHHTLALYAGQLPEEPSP

[14] = target: T4, Dual specificity protein phosphatase 3 (Homo sapiens, UniProt P51452); test: VHR1 phosphatase inhibitors, primary screen, biochemical, absorbance, uHTS (AID 1654)
T4 sequence (P51452 whole entry): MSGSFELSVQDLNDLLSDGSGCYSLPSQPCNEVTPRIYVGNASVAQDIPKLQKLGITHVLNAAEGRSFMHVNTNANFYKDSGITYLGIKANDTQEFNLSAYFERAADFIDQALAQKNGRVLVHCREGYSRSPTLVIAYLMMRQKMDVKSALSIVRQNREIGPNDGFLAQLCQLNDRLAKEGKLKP

[15] = target: T5, Tyrosine-protein phosphatase non-receptor type 22 (Homo sapiens, UniProt Q9Y2R2); type: functional
T5 sequence (Q9Y2R2 whole entry): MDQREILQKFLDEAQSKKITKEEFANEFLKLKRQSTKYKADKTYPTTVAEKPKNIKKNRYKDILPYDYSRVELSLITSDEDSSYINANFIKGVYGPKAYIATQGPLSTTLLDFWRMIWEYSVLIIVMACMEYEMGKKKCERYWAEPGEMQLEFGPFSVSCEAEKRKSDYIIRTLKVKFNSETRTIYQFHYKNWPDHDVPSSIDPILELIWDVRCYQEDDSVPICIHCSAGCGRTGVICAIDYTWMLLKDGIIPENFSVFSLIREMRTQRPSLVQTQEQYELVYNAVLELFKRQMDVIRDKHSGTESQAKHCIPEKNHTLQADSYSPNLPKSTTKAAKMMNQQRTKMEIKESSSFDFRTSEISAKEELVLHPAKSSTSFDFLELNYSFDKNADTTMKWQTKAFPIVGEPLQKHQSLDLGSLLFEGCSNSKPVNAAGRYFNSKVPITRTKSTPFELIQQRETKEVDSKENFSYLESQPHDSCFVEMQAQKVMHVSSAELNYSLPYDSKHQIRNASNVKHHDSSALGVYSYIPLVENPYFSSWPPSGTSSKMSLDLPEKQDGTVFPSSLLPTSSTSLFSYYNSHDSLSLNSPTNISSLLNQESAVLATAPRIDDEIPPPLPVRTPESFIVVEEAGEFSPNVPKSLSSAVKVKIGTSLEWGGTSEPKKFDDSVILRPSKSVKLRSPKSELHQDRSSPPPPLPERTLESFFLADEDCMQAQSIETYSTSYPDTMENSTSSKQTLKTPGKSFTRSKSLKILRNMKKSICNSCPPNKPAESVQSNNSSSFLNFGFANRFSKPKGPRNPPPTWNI

[16] = target: T6, Dual specificity protein phosphatase 6 (Rattus norvegicus, UniProt Q64346); test: MKP-3 phosphatase inhibitors, primary screen, biochemical, rat enzyme, in vitro (AID 425)
T6 sequence (Q64346 whole entry): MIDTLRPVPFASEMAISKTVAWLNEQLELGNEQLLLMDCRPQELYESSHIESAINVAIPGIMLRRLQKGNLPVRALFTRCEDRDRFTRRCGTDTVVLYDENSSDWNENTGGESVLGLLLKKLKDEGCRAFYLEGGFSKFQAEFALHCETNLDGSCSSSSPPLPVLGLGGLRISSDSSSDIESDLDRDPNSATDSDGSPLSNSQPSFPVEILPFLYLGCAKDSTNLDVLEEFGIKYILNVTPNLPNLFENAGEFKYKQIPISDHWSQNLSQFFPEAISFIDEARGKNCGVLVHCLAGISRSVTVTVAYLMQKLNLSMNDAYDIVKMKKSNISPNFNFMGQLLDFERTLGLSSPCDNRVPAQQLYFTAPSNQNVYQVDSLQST

[17] = target: T3, Tyrosine-protein phosphatase non-receptor type 7; type: functional
[18] = target: T5, Tyrosine-protein phosphatase non-receptor type 22; test: inhibitors of LYP phosphatase, biochemical, fluorescence intensity, uHTS (AID 1779)
Aminopeptidase N = target: T7, Aminopeptidase N (Plasmodium falciparum FcB1/Columbia, UniProt O96935); test: P. falciparum M1AAP inhibitors, biochemical, fluorogenic H-Leu-NHMec substrate, 1536-well (AID 1445); set-up: species or system Plasmodium falciparum 3D7, 3D7
T7 sequence (O96935 whole entry): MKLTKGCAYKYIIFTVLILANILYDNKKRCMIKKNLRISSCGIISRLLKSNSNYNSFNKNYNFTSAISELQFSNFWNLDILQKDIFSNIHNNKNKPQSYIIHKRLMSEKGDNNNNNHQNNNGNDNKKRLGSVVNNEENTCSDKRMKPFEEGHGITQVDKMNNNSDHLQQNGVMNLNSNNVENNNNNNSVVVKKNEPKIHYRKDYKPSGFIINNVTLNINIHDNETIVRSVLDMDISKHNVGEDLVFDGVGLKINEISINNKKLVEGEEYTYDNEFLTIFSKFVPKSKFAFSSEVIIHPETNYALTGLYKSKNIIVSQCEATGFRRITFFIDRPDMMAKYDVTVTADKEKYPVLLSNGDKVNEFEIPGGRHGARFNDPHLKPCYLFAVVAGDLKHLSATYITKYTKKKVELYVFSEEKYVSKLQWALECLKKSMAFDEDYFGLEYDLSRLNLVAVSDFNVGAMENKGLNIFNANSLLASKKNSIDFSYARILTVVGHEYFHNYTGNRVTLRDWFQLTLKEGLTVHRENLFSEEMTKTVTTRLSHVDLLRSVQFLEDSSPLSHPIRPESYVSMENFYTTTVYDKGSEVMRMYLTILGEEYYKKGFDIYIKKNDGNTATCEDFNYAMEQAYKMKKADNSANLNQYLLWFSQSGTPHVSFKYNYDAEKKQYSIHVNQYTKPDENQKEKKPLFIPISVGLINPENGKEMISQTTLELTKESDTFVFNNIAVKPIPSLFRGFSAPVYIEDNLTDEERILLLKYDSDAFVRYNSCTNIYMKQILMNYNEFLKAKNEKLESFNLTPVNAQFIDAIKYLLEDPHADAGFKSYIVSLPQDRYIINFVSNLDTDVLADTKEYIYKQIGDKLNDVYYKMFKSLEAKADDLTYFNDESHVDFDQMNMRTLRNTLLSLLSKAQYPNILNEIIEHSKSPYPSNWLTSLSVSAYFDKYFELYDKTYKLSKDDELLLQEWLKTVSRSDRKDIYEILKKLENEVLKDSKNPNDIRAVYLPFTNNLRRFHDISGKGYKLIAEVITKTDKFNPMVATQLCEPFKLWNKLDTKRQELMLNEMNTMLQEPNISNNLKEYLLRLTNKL

[19] = target: T5, Tyrosine-protein phosphatase non-receptor type 22; type: functional; remark: listed apart in the source
[20] = target: T4, Dual specificity protein phosphatase 3; test: VHR1 phosphatase inhibitors, biochemical (AID 1878)
[21] = target: T5, Tyrosine-protein phosphatase non-receptor type 22; test: LYP1 Fluorescent Assay using OMFP substrate for In Vitro dose response studies. [Related pubchem assays (depositor defined):AID1779, AID1784, AID435024]

With Cc1ccc(CSc2ccc(-c3ccc4c(c3)OCO4)nn2)cc1 the AC50 [1] was 1.46 µM (active) and the AC50 [2] was 43.6 µM (active).

For COc1ccc(NN=Nc2nc3c(=O)n(C)c(=O)n(C)c3[nH]2)cc1, the IC50 (Large T antigen) was 36.8 µM (active), the AC50 [3] was 8.08 µM (active) and the AC50 [4] was > 60 µM (inactive).

With Cc1ccc(C(=O)NNC(=O)c2ccc3ccccc3c2O)cc1 the IC50 (Albumin) was > 94 µM (inactive), the IC50 [5] was 7.74 µM (active) and the AC50 [3] was 8.8 µM (active). For the same molecule, the AC50 [4] was 6.59 µM (active).

For CCN(C[C@H]1N[C@@](CC)(C(=O)OC)[C@H]2C(=O)N(Cc3ccccc3)C(=O)[C@@H]12)S(=O)(=O)c1ccc(C)cc1, the AC50 [6] was 2.37 µM (active), the AC50 [7] was 4.32 µM (active) and the AC50 [8] was 3.4 µM (active). The EC50 (HEK293 [9]) was > 59.6 µM (inactive), the EC50 (HEK293 [10]) was > 59.6 µM (inactive) and the AC50 [11] was 2.36 µM (active).

With COc1cccc(-c2sc3ccc(OC)cc3c2-c2ccc(OCCN3CCOCC3)cc2)c1 the AC50 [1] was 2.09 µM (active) and the AC50 [2] was 3.73 µM (inconclusive).

For O=[N+]([O-])c1ccc(Sc2ccncn2)c([N+](=O)[O-])c1, the EC50 (HEK293 [9]) was > 59.6 µM (inactive), the EC50 (HEK293 [10]) was > 59.6 µM (inactive) and the IC50 [12] was 7.56 µM (active).

For COc1ccc(/N=C2\S/C(=C\c3ccc(OCC(=O)O)cc3)C(=O)N2CCc2c[nH]c3ccccc23)cc1, the IC50 [13] was > 99 µM (inactive), the IC50 [14] was 3.49 µM (active) and the IC50 [15] was < 1.24 µM (active). The IC50 [16] was > 158 µM (not active), the IC50 [17] was 2.52 µM (active) and the IC50 [18] was > 99 µM (inactive). For the same molecule, the IC50 (Aminopeptidase N) was 75.7 µM (active), the IC50 [19] was < 1.24 µM (active) and the IC50 [20] was 2.43 µM (active). The IC50 [21] was > 99 µM (inactive).
